± gives the expanded uncertainty stated by the source.
Details: Liquid; for mass density: 101.33 kPa, Vibrating tube method; for Normal boiling temperature: Ebulliometric method (Recirculating still)

Row | Compound | mass density (303.15 K) [kg/m3] | Normal boiling temperature [°C] | mass density (298.15 K) [kg/m3] | mass density (288.15 K) [kg/m3]
1 | COCOC [dimethoxymethane] | 848.59 ± 0.13 | 42.00 ± 0.2 |  | 
2 | COC(=O)OC [dimethyl carbonate] |  | 90.00 ± 0.2 | 1063.3 ± 0.12 | 
3 | COC=O [methyl methanoate] |  | 31.50 ± 0.2 |  | 980.82 ± 0.11
